{
  "source": "patent US20090326014A1",
  "about": "“Use of 5-ht7 receptor agonists for the treatment of pain” (Laboratorios Del Dr. Esteve, S.A., priority 2006, published 2009)",
  "key": {"[1]": {"tested_on": "thermal hyperalgesia induced by partial sciatic nerve ligation", "assay": "Partial sciatic nerve ligation, plantar test (thermal hyperalgesia)", "procedure": "Animals were housed in groups of five, provided with food and water ad libitum and kept in controlled laboratory conditions with the temperature maintained at 21±1° C. and light in 12 h cycles (on at 07:00 h and off at 19:00 h). Experiments were carried out in a soundproof and air-regulated experimental room.\nThe rest of compounds were prepared as aqueous solutions. Doses were calculated based on the molecular weight of the free base. All the compounds and vehicles (1% DMSO or physiological saline) were administered in a volume of 5 ml/kg through the subcutaneous (s.c.) route. When two compounds were co-administered, they were injected s.c. in opposite flanks of the mice.\nThis model consists of partial injury to the sciatic nerve at mid-thigh level. All surgical procedures for nerve injury were performed under isoflurane (IsoFlo®, Abbott-Laboratorios Dr. Esteve, S. A., Barcelona, Spain) anesthesia (induction: 3%; surgery: 2%). Briefly, mice were anaesthetized and the common sciatic nerve was exposed at the level of the mid-thigh of the right hind paw. Partial nerve injury was produced at about 1 cm proximal to the nerve trifurcation by tying a tight ligature around approximately 33 to 50% the diameter of the sciatic nerve using 9-0 non-absorbable virgin silk suture (Alcon surgical, Texas, USA). Ligature enclosed the outer ⅓-½ sciatic nerve whereas the rest of the nerve (inner ⅔-½) was leaved “uninjured”. The muscle was then stitched with 6-0 silk suture and the skin incision was closed with wound clips. Control, sham-operated mice underwent the same surgical procedure and the sciatic nerve was exposed, but not ligated. After surgery, animals were allowed to recover for 5 days prior to initiation of nociceptive behavioral tests (see experimental protocol below).\nThe effectiveness of acute treatments with 5-HT7 ligands compared to vehicle on the expression of neuropathic pain was investigated based on the following experimental protocol. […] After the habituation period, pre-injury baseline responses in each test were established during 2 consecutive days. One day after baseline measurements, nerve injury or sham operation was induced as previously described. Mice were then tested in either the von Frey or the plantar test on day 5 after the surgical procedure to monitor post-injury responses. Post-injury baseline responses of mice treated with vehicle were obtained on day 10 (basal pre-treatment). On days 11-13 mice received treatment with three different doses of 5-HT7 ligands following a Latin square design. Finally, on day 14 after surgery, baseline responses in vehicle-treated mice (basal post-treatment) were evaluated as an internal control to ensure that mechanical allodynia and thermal hyperalgesia were not influenced by previous treatments in the Latin square design."}, "[2]": {"tested_on": "capsaicin-induced mechanical allodynia", "assay": "Capsaicin test, proallodynic protocol (4 ng capsaicin, 0.25 g von Frey filament)", "format": "in vivo, mice", "conditions": "0.25 g pressure", "method": "Alternatively, in some experiments, only 4 ng (instead of 1 μg) of capsaicin were injected into the paw and the pressure exerted by the filament was reduced to 0.25 g (instead of 1 g). […] This approach was used to test the possibility that treatments could exert a proallodynic effect. The FIG. 1 summarizes the two different experimental approaches carried out in this study."}, "[3]": {"molecular_target": "5-HT7 receptors (Homo sapiens, UniProt P34969)", "sequence (P34969 whole entry)": "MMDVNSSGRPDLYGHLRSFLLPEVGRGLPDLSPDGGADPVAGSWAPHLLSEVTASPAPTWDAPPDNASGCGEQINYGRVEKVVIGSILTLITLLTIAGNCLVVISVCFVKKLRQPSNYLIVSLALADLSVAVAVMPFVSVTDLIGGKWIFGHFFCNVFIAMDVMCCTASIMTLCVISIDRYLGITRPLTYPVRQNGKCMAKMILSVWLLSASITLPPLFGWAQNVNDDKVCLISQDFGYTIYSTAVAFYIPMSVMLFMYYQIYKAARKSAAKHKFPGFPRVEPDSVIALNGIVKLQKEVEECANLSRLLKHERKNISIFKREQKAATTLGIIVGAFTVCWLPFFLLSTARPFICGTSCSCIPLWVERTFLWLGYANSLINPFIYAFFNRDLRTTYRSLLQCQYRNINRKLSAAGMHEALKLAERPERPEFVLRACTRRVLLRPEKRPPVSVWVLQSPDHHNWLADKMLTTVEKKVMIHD", "conditions": "Mahe et al., 2004; Romero et al., 2006; cited from earlier work"}, "[4]": {"molecular_target": "h5-HT2A (Homo sapiens, UniProt P28223)", "sequence (P28223 whole entry)": "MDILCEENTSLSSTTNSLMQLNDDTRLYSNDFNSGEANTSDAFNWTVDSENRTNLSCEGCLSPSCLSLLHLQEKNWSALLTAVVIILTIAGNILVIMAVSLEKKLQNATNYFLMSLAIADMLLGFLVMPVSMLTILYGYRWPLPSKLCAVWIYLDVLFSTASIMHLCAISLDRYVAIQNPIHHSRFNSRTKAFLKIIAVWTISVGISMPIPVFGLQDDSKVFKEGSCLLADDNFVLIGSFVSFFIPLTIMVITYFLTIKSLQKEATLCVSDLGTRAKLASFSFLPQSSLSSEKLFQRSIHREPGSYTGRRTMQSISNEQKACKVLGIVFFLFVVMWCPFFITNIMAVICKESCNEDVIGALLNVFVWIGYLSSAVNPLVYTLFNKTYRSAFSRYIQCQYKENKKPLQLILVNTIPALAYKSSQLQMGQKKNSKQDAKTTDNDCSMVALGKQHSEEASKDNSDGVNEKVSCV", "assay": "Radioligand binding assay, h5-HT2A", "conditions": "read-out: Affinity [ki (nM)]"}, "[5]": {"tested_on": "mechanical allodynia induced by partial sciatic nerve ligation", "assay": "Partial sciatic nerve ligation, von Frey test (mechanical allodynia)", "format": "in vivo, mice", "description": "Mechanical allodynia was quantified by measuring the tactile threshold for hind paw withdrawal following von Frey filament stimulation. […] The filament exerted an increasing upward pressure on the plantar surface. The pressure increased linearly with time (0.1 g/s; from 0 to 5 g in 50 s) until the mouse withdrew its paw. […] A cut-off threshold of 5 g (50 s) was imposed.\nThe filament of 0.4 g was first used. […] This up-down procedure was stopped four measures after the first change in animal responding and the threshold of response was calculated. Clear paw withdrawal, shaking was considered as a nociceptive-like response."}, "[6]": {"tested_on": "capsaicin-induced mechanical allodynia", "assay": "Capsaicin test, antiallodynic protocol (1 μg capsaicin, 1 g von Frey filament)", "conditions": "for effect on capsaicin-induced mechanical allodynia: 1 g filament", "procedure": "Animals were housed in groups of five, provided with food and water ad libitum and kept in controlled laboratory conditions with the temperature maintained at 21±1° C. and light in 12 h cycles (on at 07:00 h and off at 19:00 h). Experiments were carried out in a soundproof and air-regulated experimental room. The number of mice per group in each individual experiment was 16.\nCapsaicin (8-methyl-N-vanillyl 6-nonamide) was dissolved in 1% DMSO (vehicle). […] Doses were calculated based on the molecular weight of the free base. All the compounds and vehicles (1% DMSO or physiological saline) were administered in a volume of 5 ml/kg through the subcutaneous (s.c.) route. When two compounds were co-administered, they were injected s.c. in opposite flanks of the mice.\nSubplantar capsaicin injection initially evokes a nocifensive behavior that is characterized by lifting and guarding the injected paw and typically lasts up to 5 min following injection. […] In this study, sensitization by subplantar capsaicin injection was used to assess the effect of several 5-HT7 ligands on mechanical allodynia.\nDrug treatments with 5-HT7 ligands were done 30 min before capsaicin injection and withdrawal latencies to a mechanical stimulus were determined 15 min after capsaicin injection (FIG. 1).\nMechanical allodynia was quantified by measuring the hind paw withdrawal response latency to von Frey filament stimulation. Mice were placed into compartment enclosures in a test chamber with a framed metal mesh floor and allowed to acclimate to their environment for 120 min before testing. […] The mechanical stimulus was applied to the plantar surface of the right, capsaicin-injected hind paw from below the mesh floor by using an automated testing device (dynamic plantar aesthesiometer; Ugo Basile, Italy) that lifts a straight filament (0.5 mm diameter). The filament exerted a fixed upward pressure (1 g or 0.25 g) on the plantar surface. When the animal withdrew its hind paw, the mechanical stimulus automatically stopped and the latency time was recorded. Latency was defined as the time from the onset of exposure to the filament to the cessation of the pressure when the sensor detected the withdrawal of the paw. A cut-off latency of 60 sec was imposed. Paw withdrawal latencies were measured in triplicate for each animal.\nThis approach enabled us to evaluate the possible antiallodynic effect of 5-HT7 ligands.\nData are presented as mean paw withdrawal latency responses in sec±S.E.M. Capsaicin-injected hind paw withdrawal responses to mechanical stimulation of treated mice were compared with those of untreated (vehicle-treated) mice. Statistical analysis to test intergroup comparisons was made using an initial one-way analysis of variance followed by the Newman-Keuls multiple comparison test. The level of significance was set at p<0.05."}, "[7]": {"molecular_target": "h5-HT1B (Homo sapiens, UniProt P28222)", "sequence (P28222 whole entry)": "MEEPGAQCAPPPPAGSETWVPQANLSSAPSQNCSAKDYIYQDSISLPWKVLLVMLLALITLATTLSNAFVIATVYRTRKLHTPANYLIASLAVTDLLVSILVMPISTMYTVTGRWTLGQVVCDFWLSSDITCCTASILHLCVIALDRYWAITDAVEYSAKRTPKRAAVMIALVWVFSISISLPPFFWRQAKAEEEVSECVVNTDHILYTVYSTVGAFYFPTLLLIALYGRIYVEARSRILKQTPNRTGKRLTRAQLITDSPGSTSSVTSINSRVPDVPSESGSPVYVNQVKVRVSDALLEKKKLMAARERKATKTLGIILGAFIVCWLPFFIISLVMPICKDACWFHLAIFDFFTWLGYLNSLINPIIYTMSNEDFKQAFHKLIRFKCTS", "assay": "Radioligand binding assay, h5-HT1B", "conditions": "read-out: Affinity [ki (nM)]"}, "[8]": {"molecular_target": "h5-HT2C (Homo sapiens, UniProt P28335)", "sequence (P28335 33-458)": "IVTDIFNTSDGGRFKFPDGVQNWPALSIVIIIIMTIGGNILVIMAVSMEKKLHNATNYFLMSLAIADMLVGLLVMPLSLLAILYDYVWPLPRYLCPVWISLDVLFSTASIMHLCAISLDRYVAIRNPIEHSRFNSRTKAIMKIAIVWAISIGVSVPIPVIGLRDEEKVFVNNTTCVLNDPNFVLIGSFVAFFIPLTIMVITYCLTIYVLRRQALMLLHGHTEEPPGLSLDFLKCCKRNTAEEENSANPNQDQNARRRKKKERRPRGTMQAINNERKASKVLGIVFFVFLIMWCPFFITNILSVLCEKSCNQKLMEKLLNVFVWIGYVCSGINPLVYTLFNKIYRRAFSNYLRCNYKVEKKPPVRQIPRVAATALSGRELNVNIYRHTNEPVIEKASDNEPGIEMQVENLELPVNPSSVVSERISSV", "assay": "Radioligand binding assay, h5-HT2C", "conditions": "h5-HT2C; read-out: Affinity [ki (nM)]"}, "[9]": {"tested_on": "sciatic nerve-ligatured rats", "assay": "Chronic constriction injury of the sciatic nerve (CCI-SN), Randall-Sellito test", "conditions": "antagonist i.p., 5a-MSD s.c.; sciatic nerve-ligated rats", "procedure": "All compounds were prepared as aqueous solutions. […] When two compounds were co-administered, one was injected s.c. and the other i.p.\nBriefly, the right common sciatic nerve was exposed at mid-tight level by blunt dissection through the biceps femoris muscle. Proximal to the trifurcation, ≈10 mm of nerve was freed from adhering tissue and four loose ligatures (5.0 chromic catgut) were tied around the sciatic nerve (≈1 mm apart). […] In sham-operated control rats, an identical dissection was performed on the right side allowing the sciatic nerve to be freed from surrounding tissue, but not ligatured. Finally, muscle and skin were closed in layers with silk thread.\nMechanical nociceptive thresholds, expressed as grams (g), were measured using the Randall-Sellito test (Ugo Basile analgesimeter; Bioseb, Chaville, France). An increasing pressure was applied to the nerve-injured hindpaw of unrestrained rats until paw withdrawal (PW) and then a squeak (i.e. the vocalization threshold when the paw was held under pressure) were obtained. As PW is a spinally coordinated reflex whereas vocalization is a supra-spinal integrated response (Kayser and Christensen, 2000), this test allowed assessment of the respective contribution of spinal versus supra-spinal mechanisms."}, "[10]": {"molecular_target": "h5-HT6 (Homo sapiens, UniProt P50406)", "sequence (P50406 whole entry)": "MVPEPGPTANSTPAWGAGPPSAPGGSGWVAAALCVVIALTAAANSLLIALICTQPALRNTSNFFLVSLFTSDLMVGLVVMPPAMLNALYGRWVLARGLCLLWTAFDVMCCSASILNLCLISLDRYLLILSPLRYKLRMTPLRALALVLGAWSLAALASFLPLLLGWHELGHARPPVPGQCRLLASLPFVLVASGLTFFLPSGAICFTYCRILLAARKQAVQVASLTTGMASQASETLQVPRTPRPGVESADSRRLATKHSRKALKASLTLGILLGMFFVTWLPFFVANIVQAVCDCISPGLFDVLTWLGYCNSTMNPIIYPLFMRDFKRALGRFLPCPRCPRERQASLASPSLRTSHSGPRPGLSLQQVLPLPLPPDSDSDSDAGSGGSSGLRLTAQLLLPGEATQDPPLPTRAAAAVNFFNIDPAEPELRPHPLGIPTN", "assay": "Radioligand binding assay, h5-HT6", "conditions": "h5-HT6; read-out: Affinity [ki (nM)]"}, "[11]": {"molecular_target": "h5-HT2B (Homo sapiens, UniProt P41595)", "sequence (P41595 whole entry)": "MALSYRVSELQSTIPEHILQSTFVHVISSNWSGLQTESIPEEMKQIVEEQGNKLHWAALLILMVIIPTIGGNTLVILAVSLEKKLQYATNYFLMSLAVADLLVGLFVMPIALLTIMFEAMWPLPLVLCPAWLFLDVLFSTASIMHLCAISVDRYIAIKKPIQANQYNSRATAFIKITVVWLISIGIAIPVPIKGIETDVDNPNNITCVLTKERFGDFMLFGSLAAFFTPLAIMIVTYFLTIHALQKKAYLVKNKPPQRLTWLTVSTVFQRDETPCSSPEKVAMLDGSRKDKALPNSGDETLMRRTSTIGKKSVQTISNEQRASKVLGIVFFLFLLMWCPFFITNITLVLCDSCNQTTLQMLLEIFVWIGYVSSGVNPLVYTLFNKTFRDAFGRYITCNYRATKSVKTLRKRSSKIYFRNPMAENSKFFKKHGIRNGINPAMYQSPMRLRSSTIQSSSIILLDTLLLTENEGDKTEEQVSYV", "assay": "Radioligand binding assay, h5-HT2B", "conditions": "h5-HT2B; read-out: Affinity [ki (nM)]"}, "[12]": {"molecular_target": "T1, h5-HT1A (Homo sapiens, UniProt P08908)", "T1 sequence (P08908 1-422)": "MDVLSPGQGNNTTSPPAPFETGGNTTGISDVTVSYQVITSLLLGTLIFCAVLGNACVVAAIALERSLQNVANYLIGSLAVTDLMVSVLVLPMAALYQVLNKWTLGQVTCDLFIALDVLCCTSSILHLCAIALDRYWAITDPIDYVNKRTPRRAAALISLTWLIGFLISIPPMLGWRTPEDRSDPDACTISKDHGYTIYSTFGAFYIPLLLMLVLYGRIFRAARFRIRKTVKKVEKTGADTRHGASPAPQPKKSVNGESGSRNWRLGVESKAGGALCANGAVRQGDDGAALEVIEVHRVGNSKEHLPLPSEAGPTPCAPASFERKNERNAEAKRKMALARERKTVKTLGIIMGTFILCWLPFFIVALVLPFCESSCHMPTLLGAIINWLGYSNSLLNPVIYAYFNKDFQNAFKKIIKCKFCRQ", "assay": "Radioligand binding assay, h5-HT1A", "conditions": "h5-HT1A; read-out: Affinity [ki (nM)]"}, "[13]": {"molecular_target": "T2, h5-HT1F (Homo sapiens, UniProt P30939)", "T2 sequence (P30939 1-366)": "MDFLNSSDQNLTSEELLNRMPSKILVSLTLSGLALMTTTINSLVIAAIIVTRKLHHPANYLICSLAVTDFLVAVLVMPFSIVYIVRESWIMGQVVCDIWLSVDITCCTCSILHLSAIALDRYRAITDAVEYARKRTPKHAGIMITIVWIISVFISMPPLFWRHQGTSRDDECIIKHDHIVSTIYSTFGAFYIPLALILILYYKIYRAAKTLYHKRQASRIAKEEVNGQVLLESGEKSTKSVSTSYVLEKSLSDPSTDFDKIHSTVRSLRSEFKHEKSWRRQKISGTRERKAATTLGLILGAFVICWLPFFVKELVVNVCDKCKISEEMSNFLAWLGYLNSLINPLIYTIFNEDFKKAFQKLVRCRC", "assay": "Radioligand binding assay, h5-HT1F", "conditions": "read-out: Affinity [ki (nM)]"}, "[14]": {"molecular_target": "h5-HT7 (Homo sapiens, UniProt P34969)", "sequence (P34969 whole entry)": "as the sequence (P34969 whole entry) above", "conditions": "read-out: Affinity [ki (nM)]"}, "[15]": {"molecular_target": "h5-HT1E (Homo sapiens, UniProt P28566)", "sequence (P28566 whole entry)": "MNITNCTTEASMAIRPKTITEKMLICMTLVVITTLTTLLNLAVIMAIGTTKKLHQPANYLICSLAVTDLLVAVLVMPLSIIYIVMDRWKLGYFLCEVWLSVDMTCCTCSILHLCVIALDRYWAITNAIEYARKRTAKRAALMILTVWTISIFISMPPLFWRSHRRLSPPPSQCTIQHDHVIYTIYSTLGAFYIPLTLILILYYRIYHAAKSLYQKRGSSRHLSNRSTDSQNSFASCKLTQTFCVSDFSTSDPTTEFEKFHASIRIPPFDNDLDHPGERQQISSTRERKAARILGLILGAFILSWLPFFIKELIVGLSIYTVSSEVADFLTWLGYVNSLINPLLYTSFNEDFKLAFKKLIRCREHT", "assay": "Radioligand binding assay, h5-HT1E", "conditions": "read-out: Affinity [ki (nM)]"}, "[16]": {"molecular_target": "h5-HT1D (Homo sapiens, UniProt P28221)", "sequence (P28221 whole entry)": "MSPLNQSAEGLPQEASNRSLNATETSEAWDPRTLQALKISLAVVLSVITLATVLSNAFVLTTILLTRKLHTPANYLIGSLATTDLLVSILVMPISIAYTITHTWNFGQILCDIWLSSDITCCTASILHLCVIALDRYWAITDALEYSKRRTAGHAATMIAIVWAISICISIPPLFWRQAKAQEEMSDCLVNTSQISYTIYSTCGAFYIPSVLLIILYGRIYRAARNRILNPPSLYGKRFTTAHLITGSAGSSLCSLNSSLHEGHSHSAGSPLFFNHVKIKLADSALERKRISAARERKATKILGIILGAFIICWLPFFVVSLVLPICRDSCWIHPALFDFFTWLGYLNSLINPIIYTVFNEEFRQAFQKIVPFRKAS", "assay": "Radioligand binding assay, h5-HT1D", "conditions": "read-out: Affinity [ki (nM)]"}},
  "data": [
    {"smiles": "Cc1cccc(S(=O)(=O)N(C)[C@H](C)CCN2CCC(C)CC2)c1", "note": "[SB-258719, (R)-3,N-Dimethyl-N-(1-methyl-3-(4-methylpiperidin-1-yl)propyl)benzene sulfonamide]", "values": [
      {"measurement": "effect on thermal hyperalgesia (paw withdrawal latency)", "setting": "[1]; 0.1-10 mg/kg s.c.", "result": "did not exert any effects"},
      {"measurement": "effect on the antihyperalgesic effect of AS-19 when co-administered", "setting": "[1]; SB-258719 5 mg/Kg + AS-19 5 mg/kg s.c., nerve-injured mice", "result": "blocked significantely the antihyperalgesic effects"},
      {"measurement": "effect on the antihyperalgesic effect of MSD-5a when co-administered", "setting": "[1]; SB-258719 5 mg/Kg + MSD-5a 10 mg/kg s.c., nerve-injured mice", "result": "had a tendency to revert MSD-5a (10 mg/kg) without significancy"},
      {"measurement": "proallodynic effect (paw withdrawal latency)", "setting": "[2]; 10 mg/Kg s.c.", "result": "allodynia was evidenced"},
      {"measurement": "proallodynic effect, dose-response", "setting": "[2]; s.c.", "result": "dose-dependently promoted allodynia"},
      {"measurement": "functionality at 5-HT7 receptor as described", "setting": "[3]", "result": "pure antagonist"},
      {"measurement": "Ki", "setting": "[4]", "result": "> 1000", "unit": "nM"},
      {"measurement": "effect alone on mechanical allodynia, nerve-injured mice", "setting": "[5]; 5 mg/Kg s.c., day 11, single dose design", "result": "had no antiallodynic effect"},
      {"measurement": "effect on mechanical threshold of the nerve-injured hind paw (proallodynic)", "setting": "[5]; 10 mg/kg s.c., nerve-injured mice", "result": "significantly decreased the mechanical threshold"},
      {"measurement": "effect on the antiallodynic effect of AS-19 and MSD-5a when co-administered", "setting": "[5]; SB-258719 5 mg/Kg, AS-19 5 mg/kg, MSD-5a 10 mg/kg s.c., nerve-injured mice", "result": "able to reverse the antiallodynic effect"},
      {"measurement": "induction of mechanical allodynia in sham-operated mice", "setting": "[5]; sham-operated, 10 mg/kg s.c.", "result": "able to induce mechanical allodynia"},
      {"measurement": "effect on capsaicin-induced mechanical allodynia", "setting": "[6]; 20 mg/kg s.c.", "result": "significantly increased paw withdrawal latencies"},
      {"measurement": "effect on capsaicin-induced mechanical allodynia", "setting": "[6]; 2.5, 5 and 10 mg/kg s.c.", "result": "unaffected"},
      {"measurement": "effect on the antiallodynic effect of AS-19 when co-administered", "setting": "[6]; AS-19 at 5 and 10 mg/kg, WAY-100635 0.3 mg/kg or SB-258719 5 mg/kg s.c.", "result": "abolished"},
      {"measurement": "effect on the antiallodynic effect of MSD-5a when co-administered", "setting": "[6]; SB-258719 5 mg/kg + MSD-5a 10 mg/kg s.c.", "result": "blocked this antiallodynic effect"},
      {"measurement": "effect on the antiallodynic effect of AS-19 when co-administered", "setting": "[6]; SB-258719 2.5 and 5 mg/kg + AS-19 5 mg/kg s.c.", "result": "dose-dependently inhibited"},
      {"measurement": "Ki", "setting": "[7]", "result": "> 1000", "unit": "nM"},
      {"measurement": "Ki", "setting": "[8]", "result": "> 1000", "unit": "nM"},
      {"measurement": "effect on 5a-MSD-induced anti-hyperalgesia/anti-allodynia", "setting": "[9]", "result": "Blockade"},
      {"measurement": "Ki", "setting": "[10]", "result": "> 1000", "unit": "nM"},
      {"measurement": "Ki", "setting": "[11]", "result": "> 1000", "unit": "nM"},
      {"measurement": "Ki", "setting": "[12]", "result": "> 1000", "unit": "nM"},
      {"measurement": "Ki", "setting": "[13]", "result": "> 1000", "unit": "nM"},
      {"measurement": "Ki", "setting": "[14]", "result": 31.6, "unit": "nM"},
      {"measurement": "Ki", "setting": "[15]", "result": "> 1000", "unit": "nM"},
      {"measurement": "Ki", "setting": "[16]", "result": "> 1000", "unit": "nM"}
    ]}
  ]
}
